Reference: patent publication US11279733B2, “Peptide antibiotics” (priority 2017, dated 2022)
Converted amounts (≈) assume the structure as drawn. Like-named read-outs stand apart in the source and are kept apart here. Positions of bridges follow the written chain, without caps; N, C: chain ends. Non-standard residues stand in square brackets, D forms with d. Residues, ends and D or L forms follow the SMILES beside them. *: point of attachment. Decanoyl(3R-OH) = CCCCCCC[C@@H](O)CC(=O)*; dIgl = N[C@@H](C(=O)O)C1Cc2ccccc2C1; dChg = N[C@@H](C(=O)O)C1CCCCC1; dDab = NCC[C@@H](N)C(=O)O; Orn = NCCC[C@H](N)C(=O)O; Dab = NCC[C@H](N)C(=O)O

Experiments:
[1] = test system: P. aeruginosa GN_043, PmxR
In short: (§1)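 Mid-log cultures grown in Mueller Hinton broth at 37° C were tested by 2-fold broth microdilution at 5×10^5 CFU/mL final. Compounds were dissolved in water and tested over a final range of 32 to 0.015 μg/mL.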

[2] = test system: P. aeruginosa GN_105, PmxR; settings: GN 105, PmxR
In short: as §1

[3] = test system: K. pneumoniae GN_102 PmxR; settings: GN 102 PmxR
In short: as §1

[4] = test system: K. pneumoniae ATCC 700603, MDR; settings: ATCC 700603
In short: as §1

E. coli ATCC 25922 = settings: ATCC 25922
In short: as §1

A. baumannii GN_093 PmxR = settings: GN 093 PmxR
In short: as §1

K. pneumoniae ATCC 13883 = settings: ATCC 13883
In short: as §1

[5] = test system: K. pneumoniae ATCC BAA-2146, NDM-1 pos; settings: ATCC BAA-2146
In short: as §1

A. baumannii ATCC 19606 = settings: ATCC 19606
In short: as §1

[6] = test system: K. pneumoniae GN_106, PmxR; settings: GN 106, PmxR
In short: as §1

P. aeruginosa ATCC 27853 = settings: ATCC 27853
In short: as §1

[7] = test system: S. aureus ATCC 25923, MSSA; settings: ATCC 25923
In short: as §1

in vitro = settings: human
In short: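 4000 cells/well, 24 h attach (37 °C, 5% CO2); compound 24 h; 5 μM resazurin 2 h, 37 °C; fluorescence ex/em 560/590. CC50 by curve fit.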

Structure (SMILES) | CC50 at 24 h (in vitro) [µM] | MIC K. pneumoniae ATCC 700603, MDR [4] [µg/mL] | MIC E. coli ATCC 25922 (E. coli ATCC 25922) [µg/mL] | MIC K. pneumoniae ATCC 13883 (K. pneumoniae ATCC 13883) [µg/mL] | MIC K. pneumoniae ATCC BAA-2146, NDM-1 pos [5] [µg/mL] | MIC A. baumannii ATCC 19606 (A. baumannii ATCC 19606) [µg/mL] | MIC P. aeruginosa ATCC 27853 (P. aeruginosa ATCC 27853) [µg/mL] | MIC S. aureus ATCC 25923, MSSA [7] [µg/mL] | MIC P. aeruginosa GN_043, PmxR ([1]; polymyxin-resistant) [µg/mL] | MIC P. aeruginosa GN_105, PmxR [2] [µg/mL] | MIC K. pneumoniae GN_102 PmxR [3] [µg/mL] | MIC A. baumannii GN_093 PmxR (A. baumannii GN_093 PmxR) [µg/mL] | MIC K. pneumoniae GN_106, PmxR [6] [µg/mL] | further results
CCCCCCC[C@@H](O)CC(=O)N[C@H](CCN)C(=O)N[C@H]1CCNC(=O)[C@H](CC(C)C)NC(=O)[C@H](CCN)NC(=O)[C@H](CCN)NC(=O)[C@H](CC(C)C)NC(=O)[C@@H](Cc2ccccc2)NC(=O)[C@H](CCCN)NC1=O [compound 994, 3(R)OH-nC9CO-D-Dab-cyc[L-Dab-L-Orn-D-Phe-L-Leu-L-Dab-L-Dab-L-Leu]] ({Decanoyl(3R-OH)}-[dDab][Dab][Orn][dF]L[Dab][Dab]L; lactam 2-C) | > 300 |  |  |  |  |  |  |  |  |  |  |  |  | MIC, P. aeruginosa FADDI-PA070, PmxR ([1]; Table 5, polymyxin-resistant): >32 µg/mL; MIC, P. aeruginosa PA9704, PmxR [2]: 8 µg/mL (≈ 7.56 µM); MIC, K. pneumoniae Cl Koprana 10065 0661:1, PmxR [3]: 4 µg/mL (≈ 3.78 µM); MIC, K. pneumoniae ATCC 700603, MDR [4]: 8 µg/mL (≈ 7.56 µM); MIC, E. coli ATCC 25922 (E. coli ATCC 25922): 8 µg/mL (≈ 7.56 µM); MIC, A. baumannii Cl Ptyela 10073 4512:2, PmxR (A. baumannii GN_093 PmxR): 32 µg/mL (≈ 30.2 µM); MIC, K. pneumoniae ATCC 13883 (K. pneumoniae ATCC 13883): 4 µg/mL (≈ 3.78 µM); MIC, K. pneumoniae ATCC BAA-2146, NDM-1 pos [5]: 8 µg/mL (≈ 7.56 µM); MIC, A. baumannii ATCC 19606 (A. baumannii ATCC 19606): 32 µg/mL (≈ 30.2 µM); MIC, K. pneumoniae Cl 138-16347-20362, PmxR [6]: 4 µg/mL (≈ 3.78 µM); MIC, P. aeruginosa ATCC 27853 (P. aeruginosa ATCC 27853): 2 µg/mL (≈ 1.89 µM); MIC, S. Aureus ATCC 25923, MSSA [7]: 32 µg/mL (≈ 30.2 µM)
CCCCCCC[C@@H](O)CC(=O)N[C@H](CCN)C(=O)N[C@H]1CCNC(=O)N(CC(C)C)NC(=O)[C@H](CCN)NC(=O)[C@H](CCN)NC(=O)[C@H](CC(C)C)NC(=O)[C@@H](Cc2ccccc2)NC(=O)[C@@H](CCN)NC1=O [compound 9416, 3(R)OH-nC9CO-D-Dab-cyc[L-Dab-L-Dab-D-Phe-L-Leu-L-Dab-L-Dab-(aza-Leu)]] | > 300 | 16 (≈ 15.3 µM) | 16 (≈ 15.3 µM) | 16 (≈ 15.3 µM) | 16 (≈ 15.3 µM) | >32 | 4 (≈ 3.83 µM) | 32 (≈ 30.6 µM) |  |  |  |  |  | MIC, P. aeruginosa FADDI-PA070, PmxR ([1]; strain name as in Table 11): >32 µg/mL; MIC P. aeruginosa PA9704, PmxR [2]: >32 µg/mL; MIC K. pneumoniae Cl Koprana 10065 0661:1 PmxR [3]: >32 µg/mL; MIC A. baumannii Cl Ptyela 10073 4512:2, PmxR (A. baumannii GN_093 PmxR): >32 µg/mL; MIC K. pneumoniae Cl 183-16357-20352, PmxR [6]: >32 µg/mL
CCCCCCC[C@@H](O)CC(=O)N[C@H](CCN)C(=O)N[C@H]1CCNC(=O)[C@H](Cc2c[nH]c3ccccc23)NC(=O)[C@H](CCN)NC(=O)[C@H](CCN)NC(=O)[C@H](CC(C)C)NC(=O)[C@@H](C2CCCCC2)NC(=O)[C@H](CCN)NC1=O [compound 8899, 3(R)OH-nC9CO-D-Dab-cyc[L-Dab-L-Dab-D-Chg-L-Leu-L-Dab-L-Dab-L-Trp]] ({Decanoyl(3R-OH)}-[dDab][Dab][Dab][dChg]L[Dab][Dab]W; lactam 2-C) | 64 | 4 (≈ 3.61 µM) | 4 (≈ 3.61 µM) | 8 (≈ 7.21 µM) | 4 (≈ 3.61 µM) | 16 (≈ 14.4 µM) | 4 (≈ 3.61 µM) | 8 (≈ 7.21 µM) | 4 (≈ 3.61 µM) | 2 (≈ 1.8 µM) | 8 (≈ 7.21 µM) | 16 (≈ 14.4 µM) | 16 (≈ 14.4 µM) | 
CCCCCCC[C@@H](O)CC(=O)N[C@H](CCN)C(=O)N[C@H]1CCNC(=O)[C@H](Cc2c[nH]c3ccccc23)NC(=O)[C@H](CCN)NC(=O)[C@H](CCN)NC(=O)[C@H](CC(C)C)NC(=O)[C@@H](C2Cc3ccccc3C2)NC(=O)[C@H](CCN)NC1=O [compound 8826, nC10-3(R)OH-D-Dab-cyc[L-Dab-L-Dab-D-indanylgyl-L-Leu-L-Dab-L-Dab-L-Trp]] ({Decanoyl(3R-OH)}-[dDab][Dab][Dab][dIgl]L[Dab][Dab]W; lactam 2-C) | 38 | 8 (≈ 7 µM) | 8 (≈ 7 µM) | 8 (≈ 7 µM) | 4 (≈ 3.5 µM) | 8 (≈ 7 µM) | 4 (≈ 3.5 µM) | 4 (≈ 3.5 µM) | 4 (≈ 3.5 µM) | 4 (≈ 3.5 µM) | 8 (≈ 7 µM) | 8 (≈ 7 µM) | 8 (≈ 7 µM) | 
